Patent publication US20250090524A1, “BTK INHIBITORS” (BIOGEN MA INC., priority 2021, published 2025)

How the values were obtained:
[1] = test system: CD69 expression on CD19+ B cells in human whole blood; assay: In Vitro Whole Blood CD69 Assay; format: cell-based; details: B-cell; human heparinized whole blood, anti-human IgD stimulation, overnight (18 to 22 hours), percentage of CD19+ B cells expressing CD69, flow cytometry; read-out: In Vitro HWB CD69 Assay IC50 Score
Protocol: Human heparinized venous blood from health donors was aliquoted into 96-well plate and “spiked” with serial dilutions of formula I compounds in DMSO or with DMSO without drug. The final concentration of DMSO in all wells was 0.1%. The plate was incubated at 37° C. for 30 min. Drug-containing samples were stimulated with […] mouse anti-human IgD-dextran (1A62) or 20 μg/mL polyclonal rabbit F(ab′)2 anti-human IgD.
Phosphate-buffered saline (PBS) was added to the negative control unstimulated sample and the plates were incubated overnight (18 to 22 hours) at 37° C. Cells were stained with fluorochrome-conjugated anti-CD19 and anti-CD69 antibodies. Lyse/fix solution was used to remove red blood cells by hypotonic lysis and to fix the remaining cells, which were then analyzed by flow cytometry. CD19+B cells were gated and analyzed for CD69 expression.
The percentage of B cells expressing CD69 was plotted versus the log 10 of the concentration of the drug and the best-fit curves (variable Hill slope) were generated to obtain the IC50 value.
“†” represents an IC50 of greater than 10 μM. “††” represents an IC50 of greater than 1 μM and equal to or less than 10 μM (1 μM<IC50≤10 μM). “†††” represents an IC50 of less than 1 μM.

BTK = target: T1, BTK (Homo sapiens, UniProt Q06187); assay: In Vitro BTK Kinase Assay: Btk-PolyGAT-LS Assay; format: biochemical; details: active BTK enzyme 0.25 nM, fluorescein-labeled polyGAT peptide 100 nM, 30 minutes incubation, TRF readout; read-out: In Vitro BTK Kinase Assay IC50 Score
T1 construct: purchased Upstate 14-552
T1 sequence (Q06187 whole entry): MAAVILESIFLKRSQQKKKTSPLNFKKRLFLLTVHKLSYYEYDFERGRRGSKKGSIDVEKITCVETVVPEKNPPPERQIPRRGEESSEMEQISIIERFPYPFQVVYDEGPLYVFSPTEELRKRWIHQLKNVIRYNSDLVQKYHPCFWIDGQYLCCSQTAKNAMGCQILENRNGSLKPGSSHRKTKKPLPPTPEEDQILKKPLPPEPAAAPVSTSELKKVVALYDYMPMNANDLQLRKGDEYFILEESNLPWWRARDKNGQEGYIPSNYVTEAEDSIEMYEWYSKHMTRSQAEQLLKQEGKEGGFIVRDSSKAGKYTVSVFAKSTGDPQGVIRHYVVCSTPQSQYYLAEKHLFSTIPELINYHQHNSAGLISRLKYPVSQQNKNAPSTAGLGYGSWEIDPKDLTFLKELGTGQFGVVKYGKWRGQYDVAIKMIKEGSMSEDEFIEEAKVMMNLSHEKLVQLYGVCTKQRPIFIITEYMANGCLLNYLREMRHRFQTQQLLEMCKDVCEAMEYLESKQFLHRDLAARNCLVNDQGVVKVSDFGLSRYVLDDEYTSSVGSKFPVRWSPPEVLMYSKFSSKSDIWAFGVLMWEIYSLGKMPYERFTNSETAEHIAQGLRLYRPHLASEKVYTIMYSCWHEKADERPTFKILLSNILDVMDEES
Protocol: The purpose of the BTK in vitro assay is to determine compound potency against BTK through the measurement of IC50. Compound inhibition is measured after monitoring the amount of phosphorylation of a fluorescein-labeled polyGAT peptide (Invitrogen PV3611) in the presence of active BTK enzyme (Upstate 14-552), ATP, and inhibitor. The BTK kinase reaction was done in a black 96 well plate (costar 3694). For a typical assay, a 24 μL aliquot of a ATP/peptide master mix (final concentration; ATP […], polyGAT 100 nM) in kinase buffer (10 mM Tris-HCl pH 7.5, 10 mM MgCl2, 200 μM […], 5 mM DTT, 0.01% Triton X-100, and 0.2 mg/ml casein) is added to each well. Next, I uL of a 4-fold, 40× compound titration in 100% DMSO solvent is added, followed by adding […] of BTK enzyme mix in 1× kinase buffer (with a final concentration of 0.25 nM). The assay is incubated for 30 minutes before being stopped with […] of a 50 mM EDTA solution. Aliquots (5 uL) of the kinase reaction are transferred to a low volume white 384 well plate (Corning 3674), and […] of a 2× detection buffer (Invitrogen PV3574, with 4 nM Tb-PY20 antibody, Invitrogen PV3552) is added. The plate is covered and incubated for 45 minutes at room temperature. Time resolved fluorescence (TRF) on Molecular Devices M5 (332 nm excitation; 488 nm emission; 518 nm fluorescein emission) is measured. IC50 values are calculated using a four parameter fit with 100% enzyme activity determined from the DMSO control and 0% activity from the EDTA control.
“†” represents an IC50 of greater than 1 μM and equal to or less than 10 μM. “††” represents an IC50 of greater than 10 nM and equal to or less than 1 μM (10 nM<IC50≤1 μM). “†††” represents an IC50 of greater than 1 nM and equal to or less than 10 nM (1 nM<IC50≤10 nM). “††††” represents an IC50 of less than 1 nM.

| SMILES | IC50 [1] [µM] | IC50 (BTK) [µM] |
| --- | --- | --- |
| C=CC(=O)N1CC2CC(c3cc(-c4cnn(C)c4)cn4nccc34)CC2C1 (stereo not shown) [Example 3, 1-[5-[6-(1-methylpyrazol-4-yl)pyrazolo[1,5-a]pyridin-4-yl]-3,3a,4,5,6,6a-hexahydro-1H-cyclopenta[c]pyrrol-2-yl]prop-2-en-1-one] | < 1 | < 0.001 |
| C=CC(=O)N1C2CCC1CC(c1nc(-c3cnn(C)c3)cn3nccc13)C2 (stereo not shown) [Example 11, 1-[3-[6-(1-methylpyrazol-4-yl)pyrazolo[1,5-a]pyrazin-4-yl]-8-azabicyclo [3.2.1]octan-8-yl]prop-2-en-1-one] | 1 to 10 | 0.001 to 0.01 |
| C=CC(=O)N1CC=C(c2nc(-c3cnn(C)c3)cn3ncc(C)c23)CC1 [Example 10, 1-[4-[3-methyl-6-(1-methylpyrazol-4-yl)pyrazolo[1,5-a]pyrazin-4-yl]-3,6-dihydro-2H-pyridin-1-yl]prop-2-en-1-one] |  | 0.01 to 1 |
| C=CC(=O)N1C[C@H]2C[C@H](c3nc(-c4cnn(C)c4)cn4nccc34)C[C@H]2C1 [Example 2, 1-[(3aS,6aR)-5-[6-(1-methylpyrazol-4-yl)pyrazolo[1,5-a]pyrazin-4-yl]-3,3a,4,5,6,6a-hexahydro-1H-cyclopenta[c]pyrrol-2-yl]prop-2-en-1-one] | 1 to 10 | 0.001 to 0.01 |
| C=CC(=O)N1CCC(c2nc(-c3cnn(C)c3)cn3nccc23)C(C)C1 (stereo not shown) [Example 15, 1-[3-methyl-4-[6-(1-methylpyrazol-4-yl)pyrazolo[1,5-a]pyrazin-4-yl]-1-piperidyl]prop-2-en-1-one] | 1 to 10 | 0.01 to 1 |
| C=CC(=O)N1CCC(c2nc(-c3cnn(C)c3)cn3ncc(C)c23)CC1 [Example 9, 1-[4-[3-methyl-6-(1-methylpyrazol-4-yl)pyrazolo[1,5-a]pyrazin-4-yl]-1-piperidyl]prop-2-en-1-one] | 1 to 10 | 0.001 to 0.01 |
| C=CC(=O)N1CCCC(c2nc(-c3cnn(C)c3)cn3nccc23)C1 (stereo not shown) [Example 5, 1-[3-[6-(1-methylpyrazol-4-yl)pyrazolo[1,5-a]pyrazin-4-yl]-1-piperidyl]prop-2-en-1-one] |  | 0.01 to 1 |
| C=CC(=O)N1CCC(c2nc(-c3cnn(C)c3)cn3nccc23)CC1 [Example 4, 1-[4-[6-(1-methylpyrazol-4-yl)pyrazolo[1,5-a]pyrazin-4-yl]-1-piperidyl]prop-2-en-1-one] | 1 to 10 | 0.001 to 0.01 |
| C=CC(=O)N1CC2CCC1CC2c1nc(-c2cnn(C)c2)cn2nccc12 (stereo not shown) [Example 14, 1-[5-[6-(1-methylpyrazol-4-yl)pyrazolo[1,5-a]pyrazin-4-yl]-2-azabicyclo[2.2.2]octan-2-yl]prop-2-en-1-one] | 1 to 10 | 0.001 to 0.01 |
| C=CC(=O)N1CCCC(c2nc(-c3cnn(C)c3)cn3nccc23)CC1 (stereo not shown) [Example 6, 1-[4-[6-(1-methylpyrazol-4-yl)pyrazolo[1,5-a]pyrazin-4-yl]azepan-1-yl]prop-2-en-1-one] | 1 to 10 | 0.01 to 1 |
| C=CC(=O)N1CCC(c2nc(-c3cnn(C)c3)cn3nccc23)CC1C (stereo not shown) [Example 12, 1-[2-methyl-4-[6-(1-methylpyrazol-4-yl)pyrazolo[1,5-a]pyrazin-4-yl]-1-piperidyl]prop-2-en-1-one] |  | 0.01 to 1 |

Next, values leading:

| IC50 [1] [µM] | IC50 (BTK) [µM] | SMILES |
| --- | --- | --- |
| 1 to 10 | 0.01 to 1 | C=CC(=O)N(C)[C@H]1CCC[C@H](c2nc(-c3cnn(C)c3)cn3nccc23)C1 (single isomer, unassigned) [Example 25, trans-N-methyl-N-(3-(6-(1-methyl-1H-pyrazol-4-yl)pyrazolo[1,5-a]pyrazin-4-yl)cyclohexyl)acrylamide] |
|  | 0.01 to 1 | C=CC(=O)N(C)C[C@H]1CC[C@H](c2nc(-c3cnn(C)c3)cn3nccc23)C1 (stereo in doubt) [Example 20, N-methyl-N-((3-(6-(1-methyl-1H-pyrazol-4-yl)pyrazolo[1,5-a]pyrazin-4-yl)cyclopentyl)methyl)acrylamide] |
| 1 to 10 | 0.01 to 1 | C=CC(=O)Nc1cccc(-c2nc(-c3cnn(C)c3)cn3nccc23)c1 [Example 28, N-(3-(6-(1-methyl-1H-pyrazol-4-yl)pyrazolo[1,5-a]pyrazin-4-yl)phenyl) acrylamide] |
| 1 to 10 | 0.001 to 0.01 | C=CC(=O)N(C)[C@H]1CCC[C@@H](c2nc(-c3cnn(C)c3)cn3nccc23)C1 (single isomer, unassigned) [Example 26, cis-N-methyl-N-(3-(6-(1-methyl-1H-pyrazol-4-yl)pyrazolo[1,5-a]pyrazin-4-yl)cyclohexyl)acrylamide] |
|  | 0.001 to 0.01 | C=CC(=O)N(C)C[C@H]1CC[C@@H](c2nc(-c3cnn(C)c3)cn3nccc23)C1 (stereo in doubt) [Example 21, N-methyl-N-((3-(6-(1-methyl-1H-pyrazol-4-yl)pyrazolo[1,5-a]pyrazin-4-yl)cyclopentyl)methyl)acrylamide] |
| 1 to 10 | 0.01 to 1 | C=CC(=O)N(C)[C@@H]1CCC[C@@H](c2nc(-c3cnn(C)c3)cn3nccc23)C1 (single isomer, unassigned) [Example 24, trans-N-methyl-N-(3-(6-(1-methyl-1H-pyrazol-4-yl)pyrazolo[1,5-a]pyrazin-4-yl)cyclohexyl)acrylamide] |
|  | 0.01 to 1 | C=CC(=O)N(C)C[C@@H]1CC[C@@H](c2nc(-c3cnn(C)c3)cn3nccc23)C1 (stereo in doubt) [Example 23, N-methyl-N-((3-(6-(1-methyl-1H-pyrazol-4-yl)pyrazolo[1,5-a]pyrazin-4-yl)cyclopentyl)methyl)acrylamide] |
| 1 to 10 | 1 to 10 | C=CC(=O)N(C)[C@H]1CC[C@H](C(=O)c2nc(-c3cnn(C)c3)cn3nccc23)C1 (relative stereo) [Example 18, N-methyl-N-(3-(6-(1-methyl-1H-pyrazol-4-yl)pyrazolo[1,5-a]pyrazine-4-carbonyl)cyclopentyl)acrylamide] |
| < 1 | 1 to 10 | C=CC(=O)N(C)[C@@H]1CC[C@H](C(=O)c2nc(-c3cnn(C)c3)cn3nccc23)C1 (stereo in doubt) [Example 19, N-methyl-N-(3-(6-(1-methyl-1H-pyrazol-4-yl)pyrazolo[1,5-a]pyrazine-4-carbonyl)cyclopentyl)acrylamide] |
| 1 to 10 | 0.01 to 1 | C=CC(=O)N(C)[C@@H]1CCC[C@H](c2nc(-c3cnn(C)c3)cn3nccc23)C1 (single isomer, unassigned) [Example 27, cis-N-methyl-N-(3-(6-(1-methyl-1H-pyrazol-4-yl)pyrazolo[1,5-a]pyrazin-4-yl)cyclohexyl)acrylamide] |
|  | 0.01 to 1 | C=CC(=O)N(C)C[C@@H]1CC[C@H](c2nc(-c3cnn(C)c3)cn3nccc23)C1 (stereo in doubt) [Example 22, N-methyl-N-((3-(6-(1-methyl-1H-pyrazol-4-yl)pyrazolo[1,5-a]pyrazin-4-yl)cyclopentyl)methyl)acrylamide] |
|  | 1 to 10 | C=CC(=O)N1CCC[C@H](Sc2nc(-c3cnn(C)c3)cn3nccc23)CC1 (single isomer, unassigned) [Example 31] |
|  | 0.01 to 1 | C=CC(=O)N1CCC[C@@H](Sc2nc(-c3cnn(C)c3)cn3nccc23)CC1 (single isomer, unassigned) [Example 30] |
|  | 0.01 to 1 | C=CC(=O)N(C)[C@H]1CC[C@@H](C(=O)c2nc(-c3cnn(C)c3)cn3nccc23)C1 (stereo in doubt) [Example 17, N-methyl-N-(3-(6-(1-methyl-1H-pyrazol-4-yl)pyrazolo[1,5-a]pyrazine-4-carbonyl)cyclopentyl)acrylamide] |
